Tests used:
[1] = Evaluation of solubility and compatibility of compound 8 (Experiment Example 8); type: physicochemical; conditions: 20° C.
Description: The solubility and the compatibility of the compound 8 obtained in Example 2 were evaluated in the following manner.
In other words, 100 mg of the compound 8 was weighed in a glass container (manufactured by NICHIDEN RIKA GLASS CO., LTD.), 10 mg of various organic solvents were added thereto in a state in which the temperature thereof was maintained to 20° C., and the solution was stirred for 10 minutes. In a case where the solid content remained, the operation of adding 10 mg of the organic solvents and stirring the solution for 10 minutes was repeated, and the amount (A mg) of the organic solvents to be used at the time of complete dissolution of the compound 8 was measured. The solubility (%) was acquired based on the value of A mg using the following equation. Solubility (%)=100 mg/(100 mg+A mg)×100

[2] = Evaluation of solvent dependence of reverse photochromic characteristics of compound 8 (Experiment Example 5); type: physicochemical
Description: The solvent dependence of the reverse photochromic characteristics of the compound 8 was evaluated in the following manner.
Various solutions of the compound 8 obtained in Example 2 were prepared using the following methods (1-1) to (1-7).
(§1) First, 1.2 mg (8.7×10^−7 mol) of the compound 8 was weighed in a vial bottle (glass bottle), and 9 mL of methanol was added thereto to prepare a solution having a concentration of 1.0×10^−4 mol/L. The obtained solution was poured into another vial bottle (glass bottle) and further diluted with methanol to prepare a methanol solution containing the compound 8 with a concentration of 5.6×10^0.5 mol/L.
as §1, with “toluene” for “methanol”, “9.3×10^−5” for “1.0×10^−4”, “1.9×10^−5” for “5.6×10^0.5”
as §1, with “10” for “9”, “acetonitrile” for “methanol”, “8.7×10^−5” for “1.0×10^−4”, “an acetonitrile” for “a methanol”, “2.2×10^−5” for “5.6×10^0.5”
as §1, with “1.1” for “1.2”, “(8.0×10^7′” for “(8.7×10^−7”, “10” for “9”, “chloroform” for “methanol”, “8.0×10^−5” for “1.0×10^−4”, “1.8×10^−5” for “5.6×10^0.5”
First, 1.5 mg […] of the compound 8 was weighed in a vial bottle (glass bottle), and 10 mL of o-dichlorobenzene was added thereto to prepare a solution having a concentration of 1.1×10^−4 mol/L. The obtained solution was poured into another vial bottle (glass bottle) and further diluted with o-dichlorobenzene to prepare an o-dichlorobenzene solution containing the compound 8 with a concentration of 2.2×10^−5 mol/L.
First, 1.3 mg (9.7×10^−7 mol) of the compound 8 was weighed in a vial bottle (glass bottle), and 10 mL of 2-propanol was added thereto to prepare a saturated solution. The supernatant of the obtained saturated solution was poured into another vial bottle (glass bottle) and further diluted with 2-propanol by three times to prepare a 2-propanol solution containing the compound 8.
as §1, with “1.4” for “1.2”, “(1.0×10^0.6” for “(8.7×10^−7”, “10” for “9”, “chlorobenzene” for “methanol”, “2.0×10^−5” for “5.6×10^0.5”
Various solutions containing the compound 8 obtained in the preparation (1) were put into a quartz cell having an optical path length of 1 cm together with a stirring bar, the solutions were irradiated with light while being stirred for 5 minutes under a condition of an irradiation intensity of 1 SUN (AM 1.5, 1000 W/m^2) using a solar simulator (product name: LAX-C100, manufactured by Asahi Spectra Co., Ltd.), and the absorbance of each solution at the maximum absorption wavelength was measured using a spectrophotometer (product name: V-670, manufactured by Jasco Corporation). Thereafter, the quartz cell was stored in a dark place, the absorbance at every fixed interval time was measured, and the temporal change of the absorbance of each solution at the maximum absorption wavelength was confirmed. […]

In the case of `C=C(C)C(=O)OCCOC(=O)c1ccccc1-c1c2ccc(=[N+](CC)CC)cc-2oc2c1CCC/C2=C\c1ccc2c(c1)c1ccccc1n2CC` [compound 8], the “Solubility (%)” value ([1]; Epoxy resin (jER ®)) is reported as 11%, the “Solubility (%)” value ([1]; organic solvent: 1-Methoxy-2-propanol (PGME)) is reported as 38% and the “Solubility (%)” value ([1]; organic solvent: Dibutyl sebacate (DBS)) is reported as 20%. The “Solubility (%)” value ([1]; organic solvent: Ethyl acetate (AcOEt)) was 50%, the “Solubility (%)” value ([1]; organic solvent: Methyl ethyl ketone (MEK)) was 50% and the “Solubility (%)” value ([1]; organic solvent: Methyl methacrylate (MMA)) was 50%. For the same compound, the “Solubility (%)” value ([1]; organic solvent: Toluene, 100 mg/(100 mg+A mg)×100) was 50%, the “Solubility (%)” value ([1]; organic solvent: Triethyl phosphate (TEP)) was 31% and the maximum absorption wavelength ([2]; 2-propanol solution) was 639 nm. It also gave a maximum absorption wavelength ([2]; acetonitrile solution) of 626 nm, a maximum absorption wavelength ([2]; chlorobenzene solution) of 659 nm and a maximum absorption wavelength ([2]; chloroform solution) of 650 nm. The maximum absorption wavelength ([2]; methanol solution) was 632 nm, the maximum absorption wavelength ([2]; o-dichlorobenzene solution) was 659 nm and the maximum absorption wavelength ([2]; toluene solution) was 653 nm.

Source: patent US10696898B2, “Reverse photochromic compound” (FUJIFILM Wako Pure Chemical Corporation, priority 2017, dated 2020)
